Experimental data reported in US12616680B2 (CONSEJO SUPERIOR DE INVESTIGACIONES CIENTÍFICAS (CSIC), priority 2019, dated 2026).

System: R6/1 mice
Settings: oral in drinking water from 3 weeks of age, open field at 13 weeks, rotarod at 18 weeks, biotin 10 mg/kg/day or thiamine 200 mg/kg/day, given separately, FIG. 6A-B

For `Cc1ncc(C[n+]2csc(CCO)c2C)c(N)n1` [thiamine], the “effect on hypoactivity (open field, distance covered) and motor coordination deficit (rotarod, time to fall)” value was “only showed improving trends in some of the behavioural tests”.
